Literature values as cited in patent US20110245202A1, “PHARMACEUTICAL COMPOSITION FOR THE TREATMENT OF RHINITIS” (priority 2003, published 2011).

Conditions: fraction of the action of naturally occurring (1R,2S)-ephedrine

## CN[C@H](C)[C@@H](O)c1ccccc1 [(1S,2R)-ephedrine]
  pharmacological action relative to the natural form (−)-ephedrine: approximately one third
